“And” between values parts separate entries of the source, which are not always exact repeats. Identical values can stand only once. Like-named read-outs stand apart in the source and are kept apart here.
Test system: C. elegans
[1] = Table S2, C. elegans SS assay, 110 μM, 0 h, averages of 4 data points
[2] = Table S2, C. elegans SS assay, 110 μM, 24 h, averages of 4 data points

Compound | Percentage of motility inhibition 0 h [1] [%] | Percentage of motility inhibition 24 h [2] | Percentage of motility inhibition 0 h (110 µM) [%] | Percentage of motility inhibition 24 h (110 µM) [%]
Handelin | 0 | 14% | – | –
C[C@H]1O[C@@H](O[C@H]2CC[C@@]3(C)[C@@H](CC[C@]4(C)[C@@H]3C=CC3=C5CC(C)(C)CC[C@]5(CO)[C@H](O)C[C@]34C)[C@]2(C)CO)[C@H](O)[C@@H](O)[C@H]1O [Prosaikogenin D] | 15 | 54% | – | –
CNCC(O)c1ccc(O)cc1 (centres unmarked) [p‐Synephrine] | 13 | 0% | – | –
C[C@@H]1C[C@H]2O[C@@]3(O[C@@H]2C(C)(C)O)[C@H](O)[C@@]2(C)[C@@H]4CC[C@H]5C(C)(C)[C@@H](O[C@@H]6OC[C@@H](O)[C@H](O)[C@H]6O)CC[C@@]56C[C@@]46CC[C@]2(C)[C@@H]13 [Cimigenoside] | 30 | 17% | – | –
CC1(O)CCC(C(C)(C)O)CC1.O (centres unmarked) [Terpin (hydrate)] | 9 | 5% | – | –
O=C([O-])c1cc(/N=N/c2ccc(O)c(C(=O)[O-])c2)ccc1O.[Na+].[Na+] [Olsalazine (Disodium)] | 6 | 12% | – | –
Nc1ccc(S(=O)(=O)Nc2cncc(Cl)n2)cc1 [Sulfaclozine] | 3 | 1% | – | –
Cc1ccc(NC(=O)C(=O)NC2CC(C)(C)NC(C)(C)C2)cc1 [YYA‐021] | 44 | 39% | – | –
Cl.N[C@@H]1CCCCN(c2c(F)cc3c(=O)c(C(=O)O)cn(C4CC4)c3c2Cl)C1 [Besifloxacin (Hydrochloride)] | 6 | 32% | – | –
CC[C@H]1CN2CCc3cc(OC)c(OC)cc3[C@@H]2C[C@@H]1C[C@H]1NCCc2cc(OC)c(OC)cc21.Cl.Cl.O [Emetine (dihydrochloride hydrate)] | 52 | 7% | – | –
CC(=O)Oc1c(C)c(C)c2c(c1C)CCC(C)(CCC[C@H](C)CCC[C@H](C)CCCC(C)C)O2 (stereo partly drawn) [D-α-Tocopherol acetate] | 7 | 22% | – | –
Oc1cc(O)c2c(c1)OC1(c3ccc(O)c(O)c3)Oc3cc(O)c4c(c3C2C1O)OC(c1ccc(O)c(O)c1)C(O)C4 (centres unmarked) [Procyanidin A1] | 23 | 12% | – | –
O.O.O=c1c(O)c(-c2ccc(O)c(O)c2)oc2cc(O)cc(O)c12 [Quercetin (dihydrate)] | 0 | 3% | – | –
CC(=O)O.Cc1cc2c(C(C)C)c(O)c(O)c(C=O)c2c(O)c1-c1c(C)cc2c(C(C)C)c(O)c(O)c(C=O)c2c1O [Gossypol (acetic acid)] | 0 | 7% | – | –
O=C(/C=C/c1ccc(O)cc1)OC[C@H]1O[C@@H](Oc2c(-c3ccc(O)cc3)oc3cc(O)cc(O)c3c2=O)[C@H](O)[C@@H](O)[C@@H]1O [Tribuloside] | 13 | 16% | – | –
NC[C@@H]1O[C@H](O[C@H]2[C@@H](O)[C@H](O[C@@H]3[C@@H](O)[C@H](N)C[C@H](N)[C@H]3O[C@H]3O[C@H](CN)[C@@H](O)[C@H](O)[C@H]3N)O[C@@H]2CO)[C@H](N)[C@@H](O)[C@@H]1O.O=S(=O)(O)O [Neomycin (sulfate)] | 21 | 3% | – | –
C[N+]1(C)CCC[C@H]1C(=O)[O-] [Stachydrine] | 0 | 0% | – | –
(−)-Myrtenal | 21 | 14% | – | –
CN(Cc1ccc(C(C)(C)C)cc1)Cc1cccc2ccccc12.Cl [Butenafine (Hydrochloride)] | 43 | 0% | – | –
COC[C@]12CN(C)[C@@H]3[C@@H]4[C@H](OC)[C@H]1[C@@]3([C@@H](OC)C[C@H]2O)[C@@H]1C[C@@]2(O)[C@H](OC(=O)c3ccccc3)[C@@H]1[C@]4(OC(C)=O)[C@@H](O)[C@@H]2OC [Mesaconitine] | 0 | 3% | – | –
Cc1ncc([N+](=O)[O-])n1CC(O)CCl (centres unmarked) [Ornidazole (Levo‐)] | 27 | 23% | – | –

Compound | Percentage of motility inhibition 0 h [1] [%] | Percentage of motility inhibition 24 h [2] | Percentage of motility inhibition 0 h (110 µM) [%] | Percentage of motility inhibition 24 h (110 µM) [%]
Ingenol-5,20-acetonide | 4 | 6% | – | –
COC(=O)[C@@]1(C)CC[C@]2(C(=O)O)CC[C@]3(C)C(=CC[C@@H]4[C@@]5(C)C[C@H](O)[C@H](O)[C@@](C)(CO)[C@@H]5CC[C@]43C)[C@@H]2C1 [Phytolaccagenin] | 5 | 15% | – | –
COc1ccc(/C=C/C(=O)c2c(O)cc(OC)cc2OC)cc1 [(E)‐Flavokawain A] | 33 | 11% | – | –
COc1cc2oc(-c3ccc(O)cc3)cc(=O)c2c(O)c1[C@@H]1O[C@H](CO)[C@@H](O)[C@H](O)[C@H]1O[C@@H]1O[C@H](CO)[C@@H](O)[C@H](O)[C@H]1O [Spinosin] | – | – | 2 | 6
Nc1nc(NC2CC2)c2ncn([C@H]3C=C[C@@H](CO)C3)c2n1.Nc1nc(NC2CC2)c2ncn([C@H]3C=C[C@@H](CO)C3)c2n1.O=S(=O)(O)O [Abacavir (sulfate)] | 29 | 2% | – | –
CCCC(C(=O)O)c1c(C)nc2ccc(Cl)cc2c1-c1ccccc1 (centres unmarked) [HIV‐1 integrase inhibitor 2] | 14 | 13% | – | –
COc1cc2c(cc1O)C[C@@H]1NCCc3cc(O)c(OC)c-2c31.Cl [Laurolitsine (hydrochloride)] | 36 | 5% | – | –
C[n+]1cc2c3c(ccc2c2ccc4cc5c(cc4c21)OCO5)OCO3.[Cl-] [Sanguinarine (chloride)] | – | 20% and 27% | – | –
C[C@@H]1CC[C@]2(C(=O)O[C@@H]3O[C@H](CO)[C@@H](O)[C@H](O)[C@H]3O)CC[C@]3(C)C(=CC[C@@H]4[C@@]5(C)CC[C@H](O)[C@](C)(C(=O)O)[C@@H]5CC[C@]43C)[C@@H]2[C@]1(C)O [Ilexsaponin A] | 0 | 12% | – | –
COc1ccc(-c2cc(=O)c3c(O)c(OC)c(OC)cc3o2)cc1OC [5‐Desmethylsinensetin] | 2 | 11% | – | –
CO/N=C(\C(=O)N[C@@H]1C(=O)N2C(C(=O)[O-])=C(CSC(=O)c3ccco3)CS[C@H]12)c1csc(N)n1.[Na+] [Ceftiofur (sodium)] | 17 | 1% | – | –
CN[C@@H]1[C@@H](O)[C@@H](O[C@@H]2[C@@H](O)[C@H](O[C@H]3OC(CN)=CC[C@H]3N)[C@@H](N)C[C@H]2N)OC[C@]1(C)O.CN[C@@H]1[C@@H](O)[C@@H](O[C@@H]2[C@@H](O)[C@H](O[C@H]3OC(CN)=CC[C@H]3N)[C@@H](N)C[C@H]2N)OC[C@]1(C)O.O=S(=O)(O)O.O=S(=O)(O)O.O=S(=O)(O)O.O=S(=O)(O)O.O=S(=O)(O)O [Sisomicin (sulfate)] | 2 | 0% | – | –
C=C[C@H]1CN2CC[C@H]1C[C@@H]2[C@@H](O)c1ccnc2ccc(OC)cc12.Cl.O [Quinidine hydrochloride monohydrate] | 40 | 6% | – | –
NC(=O)c1cccnc1 [Nicotinamide] | – | 0% and 10% | – | –
COC(=O)C1=CO[C@@H](O)[C@@H]2[C@@H](C)[C@@H](O)C[C@H]12 [Loganetin] | 0 | 2% | – | –
Cl.Cl.O=C(C[C@H]1NCCC[C@@H]1O)Cn1cnc2ccccc2c1=O [Febrifugine (dihydrochloride)] | 30 | 2% | – | –
Cc1nnc(C(=O)NC(C)(C)c2nc(C(=O)NCc3ccc(F)cc3)c([O-])c(=O)n2C)o1.[K+] [Raltegravir (potassium salt)] | 3 | 4% | – | –
O=C1C[C@@H](c2ccc(O)cc2)Oc2cc(O[C@@H]3O[C@H](CO)[C@@H](O)[C@H](O)[C@H]3O)ccc21 [Neoliquiritin] | 0 | 20% | – | –
CC(=O)OCC1=C(C(=O)[O-])N2C(=O)[C@@H](NC(=O)Cc3cccs3)[C@H]2SC1.[Na+] [Cephalothin (sodium)] | 9 | 11% | – | –
Clc1ccc(COC(Cn2ccnc2)c2ccc(Cl)cc2Cl)c(Cl)c1.O=[N+]([O-])O (centres unmarked) [Miconazole (nitrate)] | 26 | 15% | – | –

Reference: article PMC11855827, “High-Throughput Screening of Five Compound Libraries for Anthelmintic Activity and Toxicity Leads to the Discovery of Two Flavonoid Compounds” (International Journal of Molecular Sciences, 2025)
